Laboratory results reported in patent publication US12427125B2 (priority 2020, dated 2025).
Like-named read-outs stand apart in the source and are kept apart here.

Legend:
female CD-1 mice [1] = system: female CD-1 mice
CD-1 mice = conditions: for Tolerability: mouse, in vivo
[2] = system: adult patients infected by SARS-CoV-19 (COVID-19); conditions: oral DA 30, 60 or 100 mg/kg BID for up to ten days; paper example
female CD-1 mice [3] = conditions: for BALF Protein Concentration Mean / BALF Protein Conc. Mean / Total Neutrophil Count per Lavage, Mean: group mean
Method: The protocols obtained 30 or 18 female CD-1 mice (Charles River Lab) and monitored daily for body condition and health status during the 3-5 days acclimation period.
At time 0, the mice were weighed. LPS was prepared 1 mg LPS in 1 ml phosphate buffered saline (PBS) to get a final concentration of 1 mg/mL. Dosed 50 μl intratracheally to the mice at time 0. For the N=30 or 18 mice in an incubator, temperature was set to achieve a core temperature of 39° C. as measured by a calibrated thermometer inserted through the top lid of the incubator with the bulb at the level of the mouse cages in the incubator (set temperature knob at 36.7° C.). In addition, a rectal probe to confirmed core temperature in the mice (check right before sacrifice at 24 h post LPS). All mice were given access to food and water at all time. Treatment was initiated three days prior to LPS dosing.
For anesthesia and LPS Dosing, mice were placed in a bell jar, with isoflurane-soaked gauze separated from the mouse by a screen and keep within a scrubber (so the operator isn't anesthetized). Monitored respiratory rate of each mouse and when reduced by half (usually within 5 seconds of going down), then take the mouse out. Each mouse was suspended from incisors across a string tied between two screws on a Plexiglas board and kept at about 70 degrees. Using blunt forceps, grabbed the tongue and hold extended, then instill 50 μL of the LPS solution into the oropharynx using a PennCentury needle/areosolizer. […] Mouse kept in this position for 5-10 seconds to allow distribution of the LPS, then returned to their cage.
Bronchoalveolar lavage fluid (BALF) was collected using rounded tip scissors make a vertical incision though skin but not peritoneum from the lower abdomen up to the jaw. Using two forceps grabbed the edge of the skin and pull apart to get wide exposure to underlying peritoneum and thoracic connective tissue/muscle. Using forceps, picked up peritoneum near the mid abdomen and with rounded tip scissors made a small incision in the peritoneum (avoid cutting gut). Then, while holding the upper edge of the peritoneum, used the rounded tip scissors to extend the incision diagonally to the left upper and right upper quadrants. Moved the liver and intestines out of the way so you can see the underside of the diaphragms. Using the rounded tip scissors, nibbled up toward the diaphragm until you can see the lungs on the other side pull away. Repeated on the other side, being careful to not nick the lungs or else you will not be able to recover lavage. Using the rounded tip scissors, cut through the diaphragm where it inserts on the anterior chest wall. Using the rounded tip scissors and taking care to avoid nicking the lung by moving it away with blunt forceps, cut through the chest wall laterally on both sides until you reach the top of the thorax, then cut across the midline at the top to remove the anterior chest wall. Using forceps pull upward on the heart and cut through at its base to remove. Using the rounded tip scissors, remove the fat pads overlying the trachea taking care not to nick the trachea. Using the rounded tip scissors inserted next to the trachea from the top of the thoracic cavity and kept next to and parallel to the trachea, make a single cut, which allowed removal of the rest of the soft tissue from the trachea but pulling over to the other side and carefully trimming to avoid nicking the trachea. Using sharp forceps carefully placed posterior to the trachea pull suture behind the trachea about 4-5 mm below the cricoid and made a very loose surgical knot (two loops around). Using ophthalmic scissors, very carefully made a cut through the anterior half of the trachea just below the cricoid. Inserted a short blunt needle into tracheal so the tip extended about 5-6 mm below the cricoid and tied a suture tightly with a second knot.

In the case of `CC(=O)[O-].CC[N+](CC)(CC(=O)Nc1c(C)cccc1C)Cc1ccccc1` [DA, Denatonium acetate], the “Mice found dead on Day 1 (within 24 h after LPS instillation)” value (female CD-1 mice [1]; mouse, in vivo) is reported as “one”, the Tolerability (female CD-1 mice [1]; mouse, in vivo, ip, 3 mg/kg) is reported as “well-tolerated” and the Tolerability (female CD-1 mice [1]; mouse, in vivo, po, 92.4 mg/kg) is reported as “well-tolerated”. The “Other adverse clinical observations” value (female CD-1 mice [1]; second study, during 3 days of test article administration) was “No other adverse clinical observations were noted”, the “Other adverse clinical observations” value (CD-1 mice; first study, during 3 days of test article administration) was “No other adverse clinical observations were noted” and the Tolerability (CD-1 mice; iv, 3 mg/kg) was “well-tolerated”. For the same compound, the Tolerability (CD-1 mice; po, 92.4 mg/kg) was “well-tolerated”, the “Decrease in adult respiratory distress syndrome (ARDS), including chronic pulmonary function, diffusion capacity and lung compliance” value [2] was at least 20% and the Decrease in mortality [2] was about 40%. The Patient tolerance [2] was “adequate patient tolerance”, the “BALF Protein Concentration Mean” value (female CD-1 mice [3]; first study, DA 3 mg/kg IV QD) was 0.638 mg/mL and the “BALF Protein Concentration Mean” value (female CD-1 mice [3]; first study, DA 92.4 mg/kg PO BID) was 0.428 mg/mL. The “Effect on BALF protein concentration, in words” value (female CD-1 mice [3]; first study, PO 92.4 mg/kg BID compared with iv 3 mg/kg QD, Table 3, FIG. 1) was “Only oral administration was effective”, the “BALF Protein Conc. Mean” value (female CD-1 mice [3]; second study, DA 3 mg/kg IP QD) was 0.727 mg/mL and the “Total Neutrophil Count per Lavage, Mean” value (female CD-1 mice [3]; second study, DA 3 mg/kg IP) was 610,900. For the same compound, the “BALF Protein Conc. Mean” value (female CD-1 mice [3]; second study, DA 92.4 mg/kg PO BID) was 0.986 mg/mL, the “Total Neutrophil Count per Lavage, Mean” value (female CD-1 mice [3]; second study, DA 92.4 mg/kg PO) was 535,080 and the “Effect on BALF total neutrophil count, in words” value (female CD-1 mice [3]; second study, PO 92.4 mg/kg compared with ip 3 mg/kg, Table 5, FIG. 2) was “Only oral administration was effective”. For the same compound, the “Changes in BALF protein concentrations, in words” value (female CD-1 mice [3]; second study, oral and IP dosing, Table 4) was “nominal (but non-significant) changes”.
